In patent US20070078143A1, “Method for preparing Ziprasidone monohydrochloride-hydrate” (Wockhardt Limited, priority 2003, published 2007):
Counter-ions that a name gives are not always drawn.

Assays:
[1] = Moisture re-absorption of the dried (anhydrous) salt on exposure to humidity; type: physicochemical; settings: after prolonged drying to anhydrous (moisture content up to 0.7% by weight); exposed at 60% relative humidity
Source text: Anhydrous Ziprasidone monohydrochloride is disclosed in U.S. Pat. No. 5,312,925. The Ziprasidone monohydrochloride-hydrate of the present invention can be made anhydrous having moisture content up to 0.7% by weight, after prolonged drying. It has been observed that the compound re-absorbs moisture up to 6% when it is exposed at 60% relative humidity.

[2] = Solubility in common organic solvents; type: physicochemical
Method: Therefore, another objective of the present invention is to find a suitable solvent or solvent mixture to purify crude Ziprasidone base to obtain the required purity with minimal loss of material. The crude Ziprasidone obtained from step (a) is dissolved in a mixture of tetrahydrofuran and N,N-dimethylformamide (7:3, v/v) with activated charcoal and heated to clarify the solution. The solution obtained is filtered, washed with a cold solvent mixture of THF and DMF and dried. The dried Ziprasidone is obtained in 99% HPLC purity.

Row | moisture re-absorbed [1] | solubility in most of the common organic solvents [2] | Structure (SMILES)
1 | up to 6% |  | O=C1Cc2cc(CCN3CCN(c4nsc5ccccc45)CC3)c(Cl)cc2N1 [Ziprasidone monohydrochloride-hydrate, 5-(2-(4-1,2-benzisothiazol-3-yl)piperazinyl)ethyl)-6-chloro-1,3-dihydro-2H-indol-2-one Monohydrochloride-hydrate]
2 |  | poor solubility | O=C1Cc2cc(CCN3CCN(c4nsc5ccccc45)CC3)c(Cl)cc2N1 [Ziprasidone, 5-(2-(4-(1,2-benzisothiazol-3-yl)-1-piperazinyl)ethyl)-6-chloro-1,3-dihydro-2H-indole-2-one]
